Measurements as given in patent publication US11952371B1, “2-[(1,3-benzoxazol-2-yl)imino]-5,5-diphenylimidazolidin-4-one as an antimicrobial compound” (KING FAISAL UNIVERSITY, priority 2023, dated 2024).

How the values were obtained:
Aspergillus flavus = assay: Agar plate disc-diffusion, antifungal activity; assay type: cell-based
Procedure: (§1) The agar plate disc-diffusion method was applied. […] The discs were then placed onto the surface of agar plates (nutrient agar for bacteria and Sabouraud's dextrose agar for fungi) seeded with the test organism. Each plate contained 15 mL of the agar medium, previously seeded with 0.2 mL of the broth culture of each organism pregrown for 18 hours. The plates were incubated at 37° C. for 48 hours, and 72 hours for fungi. The inhibition zones were measured in millimeter. Discs impregnated with DMSO were used as a control, and its inhibition zone was subtracted from the tested compound actual inhibition zone.
(§2) The results of the antimicrobial testing can be observed in Tables 1 and 2, below, with ciprofloxacin serving as a reference.

[1] = system: Chrysosporium keratinophilum; assay: Agar plate disc-diffusion, antifungal activity; assay type: cell-based
Procedure: as §1, §2

Staphylococcus aureus = assay: Agar plate disc-diffusion, antibacterial activity; assay type: cell-based
Procedure: as §1, §2

Pseudomonas aeruginosa = assay: Agar plate disc-diffusion, antibacterial activity; assay type: cell-based
Procedure: as §1, §2

Bacillus cereus = assay: Agar plate disc-diffusion, antibacterial activity; assay type: cell-based
Procedure: as §1, §2

Escherichia coli = assay: Agar plate disc-diffusion, antibacterial activity; assay type: cell-based
Procedure: as §1, §2

[2] = A = concentration of comp. = 10,000 μL
[3] = B = concentration of comp. = 30,000 μL
[4] = C = concentration of comp. = 50,000 μL

Row | SMILES | inhibition zone (Aspergillus flavus; [2]) [millimeter] | inhibition zone (Aspergillus flavus; [3]) [millimeter] | inhibition zone (Aspergillus flavus; [4]) [millimeter] | inhibition zone [1, 2] [millimeter] | inhibition zone [1, 3] [millimeter] | inhibition zone [1, 4] [millimeter] | inhibition zone (Staphylococcus aureus; [2]) [millimeter] | inhibition zone (Staphylococcus aureus; [3]) [millimeter] | inhibition zone (Staphylococcus aureus; [4]) [millimeter] | inhibition zone (Pseudomonas aeruginosa; [2]) [millimeter] | inhibition zone (Pseudomonas aeruginosa; [3]) [millimeter] | inhibition zone (Pseudomonas aeruginosa; [4]) [millimeter] | inhibition zone (Bacillus cereus; [2]) [millimeter] | inhibition zone (Bacillus cereus; [3]) [millimeter] | inhibition zone (Bacillus cereus; [4]) [millimeter] | inhibition zone (Escherichia coli; [2]) [millimeter] | inhibition zone (Escherichia coli; [3]) [millimeter] | inhibition zone (Escherichia coli; [4]) [millimeter] | melting point [°C]
1 | O=C(O)c1cn(C2CC2)c2cc(N3CCNCC3)c(F)cc2c1=O [Cip., ciprofloxacin, reference compound] | 29 | 30 | 42 | 29 | 30 | 53 | 42 | 44 | 53 | 29 | 30 | 53 | 29 | 31 | 42 | 30 | 39 | 60 | –
2 | O=C1N/C(=N/c2nc3ccccc3o2)NC1(c1ccccc1)c1ccccc1 [compound 3, 2-[(1,3-benzoxazol-2-yl)imino]-5,5-diphenylimidazolidin-4-one] | 19 | 23 | 37 | 22 | 25 | 47 | 16 | 19 | 23 | 26 | 30 | 48 | 27 | 30 | 42 | 25 | 33 | 39 | 234 to 236
